The subject of this assay is CTP synthase. As to the kind of experiment: Determination of CTP synthase Michaelis-Menten constants Km and Vmax (CTP formation kinetics from UTP, LC-MS/MS). It is filed as biochemical, human. Conditions: initial UTP 0 to 6 mM. Here is the method:
The cell extracts may be obtained from cultured cells (primary cultures of cells, blasts or cell lines), from blood derived cells. Particularly, mononuclear cells (PBMCs, peripheral blood mononuclear cells) have been isolated from peripheral blood. The cells were washed with phosphate buffer 0.1 M KH2PO4, pH=7.4, and then collected in HEPES buffer 70 mM, pH=8.0, containing 10 mM NaF and protease inhibitors leupeptin and pepstatin to the concentration of 10 μg/mL. The cells were immediately placed in a bath of ethanol and dry ice, and then placed for at least 1 hour at −80° C. The cells were then centrifuged for 30 minutes at 10 000 g at 4° C. The supernatant, containing the cytosolic fraction, was collected and contained proteins were dosed. One to 10 µg of proteins, prepared as described above, were used for measuring CTP synthase activity in a reaction mixture containing 4 μM internal standard, 1.25 mM UTP, 1.25 mM ATP, 0.31 mM GTP, 12.5 mM glutamine, 1.25 mM phosphoenolpyruvate, 0.62 mM EDTA and 10 mM NaF in 15 μL complete HEPES buffer 70 mM, pH=8.0. Enzymatic reaction was carried out at 37° C. for 90 minutes and then, the reaction tubes were cooled on ice and the enzymatic reaction was stopped by adding 15 μL HCLO4 1 M. The reaction tubes were vortexed and centrifuged for 5 minutes at 12 000 g at 4° C. The supernatants were diluted with the aqueous mobile phase A and transferred to a 384-well plate. Analyses were performed using a Waters chromatographic UPLC system (Acquity™ UPLC) connected to a Waters TQD quadrupole mass spectrometer, operated in the electrospray positive ion mode with selected reaction monitoring (SRM). […] Waters HSS T3, 1.8 μm particle size, 2.1×100 mm column, which was maintained at 30° C. throughout the analysis. The flow rate was 0.5 mL/min. Mobile phase A was 5 mM dibutylamine acetate in water and mobile phase B, 5 mM dibutylamine acetate in acetonitrile. Three distinct mobile-phase gradients were used (see Tables 6a to 6c below). Then the enzymatic constants of Michaelis-Menten, Km and Vmax were determined by performing CTP formation kinetics during 90 minutes by using initial concentrations of UTP ranging from 0 to 6 mM. The values obtained for Vmax and Km were of the same order of magnitude as those previously published with radio-isotopic methods (FIG. 4).

Data on 1 compound can be found in US10731197B2, “Methods for detecting or quantifying CTP and CTP synthase activity” (Assistance Publique-Hopitaux de Paris, priority 2015, dated 2020).

Usually Vmax stands for the rate approached at saturating substrate. Consider `O=c1ccn([C@@H]2O[C@H](COP(=O)(O)OP(=O)(O)OP(=O)(O)O)[C@@H](O)[C@H]2O)c(=O)[nH]1` [UTP, uridine triphosphate], for which the Vmax (PBMCs activated, 90 minutes) is 0.379 ± 0.091 nmol/min; the Vmax (activated PBMC protein extracts, 90 min) was 0.3789 ± 0.091 nmol/min; the Vmax (resting PBMC protein extracts, 90 min) is 0.083 ± 0.02 nmol/min; the Vmax (resting cells, 90 minutes) came to 0.083 ± 0.02 nmol/min.
